Here are results for 12 molecules from ChEMBL document CHEMBL4130363, “Synthesis and pharmacological evaluation of benzamide derivatives as potent and selective sigma-1 protein ligands” (Eur J Med Chem, 2017).

One series relates to SH-SY5Y. In words: Cytotoxicity against human SH-SY5Y cells assessed as reduction in cell viability after 72 hrs by MTT assay. It is filed as cell-based. A general note: Tetrazolium dyes change colour on reduction, which living cells bring about.
Series [1] concerns the target T1, Adenosine receptor A3 (Homo sapiens) (UniProt P0DMS8).
T1 sequence (whole entry): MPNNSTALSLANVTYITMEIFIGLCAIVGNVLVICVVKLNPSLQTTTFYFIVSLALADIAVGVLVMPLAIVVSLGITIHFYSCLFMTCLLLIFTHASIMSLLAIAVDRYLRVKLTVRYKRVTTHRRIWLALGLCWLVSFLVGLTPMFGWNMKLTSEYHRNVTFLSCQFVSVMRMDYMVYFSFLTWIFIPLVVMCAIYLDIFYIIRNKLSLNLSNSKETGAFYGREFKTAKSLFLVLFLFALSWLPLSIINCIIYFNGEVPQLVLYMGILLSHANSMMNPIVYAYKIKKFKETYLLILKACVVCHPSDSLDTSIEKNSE
The experiment in a line: Antagonist activity at recombinant human adenosine A3 receptor assessed as inhibition of agonist-induced cAMP induction at 10 uM by HTRF assay. Type of series: functional.

Series [2] concerns the target Mu-type opioid receptor (Homo sapiens) (UniProt P35372). In words: Antagonist activity at human mu-type opioid receptor assessed as inhibition of agonist-induced effect at 10 uM by GTPgamma[35S] binding-based assay. It is filed as functional.
In series [3] the target is Vasopressin V1a receptor (Homo sapiens) (UniProt P37288). The experiment in a line: Antagonist activity at recombinant human V1A receptor assessed as inhibition of agonist-induced effect at 10 uM by aequorin reporter based assay. It is filed as functional.
Vasopressin V1a receptor (Homo sapiens), sequence (P37288 whole entry, looked up): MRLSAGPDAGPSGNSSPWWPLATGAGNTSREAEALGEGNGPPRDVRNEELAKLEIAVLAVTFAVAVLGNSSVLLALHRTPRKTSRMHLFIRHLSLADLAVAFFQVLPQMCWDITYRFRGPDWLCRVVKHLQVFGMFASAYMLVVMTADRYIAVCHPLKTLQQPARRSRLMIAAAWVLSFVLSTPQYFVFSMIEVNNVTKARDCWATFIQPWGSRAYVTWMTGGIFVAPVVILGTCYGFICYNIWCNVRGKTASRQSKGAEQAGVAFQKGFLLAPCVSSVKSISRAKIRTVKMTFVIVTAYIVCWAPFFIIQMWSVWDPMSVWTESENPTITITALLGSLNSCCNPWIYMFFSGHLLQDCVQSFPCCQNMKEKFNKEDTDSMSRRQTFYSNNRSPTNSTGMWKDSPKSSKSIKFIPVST
The next series has as its system S1R (sigma-1 receptor). In words: Selectivity index, ratio of IC50 for human SH-SY5Y cells to Ki for S1R in human Jurkat cell membranes. It is filed as toxicity, cell-based.
Series [4] has as its target T2, Alpha-2B adrenergic receptor (Homo sapiens) (UniProt P18089).
T2 sequence (whole entry): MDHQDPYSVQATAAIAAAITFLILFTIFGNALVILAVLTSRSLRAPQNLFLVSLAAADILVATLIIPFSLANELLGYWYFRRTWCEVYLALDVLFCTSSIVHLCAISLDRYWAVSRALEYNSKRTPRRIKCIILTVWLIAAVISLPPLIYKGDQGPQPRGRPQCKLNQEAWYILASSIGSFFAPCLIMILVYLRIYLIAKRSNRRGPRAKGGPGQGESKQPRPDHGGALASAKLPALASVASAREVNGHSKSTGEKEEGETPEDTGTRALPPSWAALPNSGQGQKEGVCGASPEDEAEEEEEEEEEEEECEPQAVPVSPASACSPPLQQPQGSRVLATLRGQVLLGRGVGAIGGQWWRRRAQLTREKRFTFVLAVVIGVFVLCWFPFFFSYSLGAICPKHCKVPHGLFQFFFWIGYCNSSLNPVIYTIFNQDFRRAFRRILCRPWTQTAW
The experiment in a line: Agonist activity at recombinant human alpha-2b adrenergic receptor at 10 uM by GTPgamma[35S] binding-based assay relative to agonist. It is filed as functional. (In general: GTPγS resists hydrolysis and so accumulates on activated G proteins.)

Series [5] concerns the target T2, Alpha-2B adrenergic receptor (Homo sapiens). The experiment in a line: Antagonist activity at recombinant human alpha-2b adrenergic receptor assessed as inhibition of agonist-induced effect at 10 uM by GTPgamma[35S] binding-based assay. Type of series: functional.
The target of series [6] is T3, Vasoactive intestinal polypeptide receptor 1 (Homo sapiens) (UniProt P32241).
T3 sequence (whole entry): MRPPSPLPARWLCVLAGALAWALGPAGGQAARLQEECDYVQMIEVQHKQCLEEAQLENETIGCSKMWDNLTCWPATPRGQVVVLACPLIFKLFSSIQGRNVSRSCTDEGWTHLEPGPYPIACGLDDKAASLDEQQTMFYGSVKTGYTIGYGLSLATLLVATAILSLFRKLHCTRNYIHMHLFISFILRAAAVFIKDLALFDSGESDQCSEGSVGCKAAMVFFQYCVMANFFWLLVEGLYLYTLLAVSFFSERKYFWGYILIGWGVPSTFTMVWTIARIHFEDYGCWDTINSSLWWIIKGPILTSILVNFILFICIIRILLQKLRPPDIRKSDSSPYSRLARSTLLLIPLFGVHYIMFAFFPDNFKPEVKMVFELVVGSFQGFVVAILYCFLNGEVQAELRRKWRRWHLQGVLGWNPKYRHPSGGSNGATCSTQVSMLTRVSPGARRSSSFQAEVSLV
In words: Antagonist activity at recombinant human VPAC1 receptor assessed as inhibition of agonist-induced effect at 10 uM by aequorin reporter based assay. Type of series: functional.

Series [7] has as its target Delta-type opioid receptor (Homo sapiens) (UniProt P41143). The experiment in a line: Antagonist activity at human delta-type opioid receptor assessed as inhibition of agonist-induced effect at 10 uM by GTPgamma[35S] binding-based assay. Type of series: functional.
Series [8] addresses T4, Neuropeptide Y receptor type 1 (Homo sapiens) (UniProt P25929).
T4 sequence (whole entry): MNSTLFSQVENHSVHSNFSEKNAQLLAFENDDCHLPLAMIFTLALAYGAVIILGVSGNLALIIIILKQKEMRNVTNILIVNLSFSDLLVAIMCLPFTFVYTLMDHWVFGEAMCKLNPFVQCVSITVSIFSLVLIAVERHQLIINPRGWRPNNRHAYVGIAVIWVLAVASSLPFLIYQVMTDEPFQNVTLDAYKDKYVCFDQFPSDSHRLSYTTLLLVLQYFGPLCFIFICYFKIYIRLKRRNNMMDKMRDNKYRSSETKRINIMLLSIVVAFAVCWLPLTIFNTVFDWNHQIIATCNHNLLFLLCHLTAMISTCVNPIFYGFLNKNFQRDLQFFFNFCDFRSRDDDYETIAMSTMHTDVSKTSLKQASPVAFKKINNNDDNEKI
In words: Antagonist activity at recombinant human NPY1R assessed as inhibition of agonist-induced cAMP levels at 10 uM by HTRF assay. Type of series: functional. (Cyclic AMP is a second messenger, typically raised through Gs and lowered through Gi signalling.)

Series [9] concerns the target 5-hydroxytryptamine receptor 7 (Homo sapiens) (UniProt P34969). In words: Antagonist activity at recombinant human 5-HT7R assessed as inhibition of agonist-induced cAMP induction at 10 uM by HTRF assay. It is filed as functional.
Series [10] addresses 5-hydroxytryptamine receptor 4 (Homo sapiens) (UniProt Q13639). In words: Agonist activity at recombinant human 5-HT4E assessed as induction of cAMP levels at 10 uM by HTRF assay relative to agonist. It is filed as functional.
Series [11] has as its target Cannabinoid receptor 1 (Homo sapiens) (UniProt P21554). In words: Antagonist activity at recombinant human CB1 receptor assessed as inhibition of agonist-induced cAMP induction at 10 uM by HTRF assay. It is filed as functional.

SMILES strings stand for the structures.

5-hydroxytryptamine receptor 4 (Homo sapiens), sequence (Q13639 whole entry): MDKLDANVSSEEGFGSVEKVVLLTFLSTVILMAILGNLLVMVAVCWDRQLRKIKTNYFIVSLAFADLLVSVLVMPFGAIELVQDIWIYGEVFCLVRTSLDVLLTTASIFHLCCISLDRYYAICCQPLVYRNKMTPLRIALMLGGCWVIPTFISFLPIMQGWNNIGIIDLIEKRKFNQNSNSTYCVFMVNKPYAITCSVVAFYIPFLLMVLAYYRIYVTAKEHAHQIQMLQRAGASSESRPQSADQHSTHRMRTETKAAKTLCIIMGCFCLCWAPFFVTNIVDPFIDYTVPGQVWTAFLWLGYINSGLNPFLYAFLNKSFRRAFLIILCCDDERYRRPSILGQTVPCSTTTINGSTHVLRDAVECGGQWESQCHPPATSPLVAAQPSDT
5-hydroxytryptamine receptor 7 (Homo sapiens), sequence (P34969 whole entry): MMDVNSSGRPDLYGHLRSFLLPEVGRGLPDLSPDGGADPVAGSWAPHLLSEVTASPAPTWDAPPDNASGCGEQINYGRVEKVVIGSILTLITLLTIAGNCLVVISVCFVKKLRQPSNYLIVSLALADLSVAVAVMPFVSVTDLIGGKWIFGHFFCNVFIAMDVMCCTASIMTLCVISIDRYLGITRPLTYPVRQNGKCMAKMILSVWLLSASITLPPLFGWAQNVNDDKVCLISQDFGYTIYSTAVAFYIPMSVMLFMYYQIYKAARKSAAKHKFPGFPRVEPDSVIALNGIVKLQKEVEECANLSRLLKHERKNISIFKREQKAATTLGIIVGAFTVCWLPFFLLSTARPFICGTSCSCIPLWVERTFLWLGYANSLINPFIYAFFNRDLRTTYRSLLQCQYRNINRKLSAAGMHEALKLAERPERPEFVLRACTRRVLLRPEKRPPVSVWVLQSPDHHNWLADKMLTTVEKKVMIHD
Delta-type opioid receptor (Homo sapiens), sequence (P41143 whole entry): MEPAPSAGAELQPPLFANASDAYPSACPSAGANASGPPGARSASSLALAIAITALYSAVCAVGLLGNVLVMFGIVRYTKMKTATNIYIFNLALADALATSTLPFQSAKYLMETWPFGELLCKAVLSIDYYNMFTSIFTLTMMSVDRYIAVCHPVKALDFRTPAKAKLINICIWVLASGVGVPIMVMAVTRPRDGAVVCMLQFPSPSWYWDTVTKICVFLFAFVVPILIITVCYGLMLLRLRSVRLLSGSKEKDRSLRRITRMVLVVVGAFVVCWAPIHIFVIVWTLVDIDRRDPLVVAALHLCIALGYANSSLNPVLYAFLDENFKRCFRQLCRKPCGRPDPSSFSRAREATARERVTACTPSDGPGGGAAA
Mu-type opioid receptor (Homo sapiens), sequence (P35372 whole entry): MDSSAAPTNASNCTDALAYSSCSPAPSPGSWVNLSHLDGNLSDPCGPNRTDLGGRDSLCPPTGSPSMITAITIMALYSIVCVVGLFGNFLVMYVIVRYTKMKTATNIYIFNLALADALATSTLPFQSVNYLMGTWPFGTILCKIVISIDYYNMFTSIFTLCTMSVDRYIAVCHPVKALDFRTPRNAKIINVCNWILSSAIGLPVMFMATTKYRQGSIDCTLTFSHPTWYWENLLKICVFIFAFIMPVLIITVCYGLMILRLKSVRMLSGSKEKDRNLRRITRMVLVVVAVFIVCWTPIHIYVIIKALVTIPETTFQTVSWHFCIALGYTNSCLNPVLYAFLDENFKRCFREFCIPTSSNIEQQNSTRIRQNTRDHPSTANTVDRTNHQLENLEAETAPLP
Cannabinoid receptor 1 (Homo sapiens), sequence (P21554 whole entry): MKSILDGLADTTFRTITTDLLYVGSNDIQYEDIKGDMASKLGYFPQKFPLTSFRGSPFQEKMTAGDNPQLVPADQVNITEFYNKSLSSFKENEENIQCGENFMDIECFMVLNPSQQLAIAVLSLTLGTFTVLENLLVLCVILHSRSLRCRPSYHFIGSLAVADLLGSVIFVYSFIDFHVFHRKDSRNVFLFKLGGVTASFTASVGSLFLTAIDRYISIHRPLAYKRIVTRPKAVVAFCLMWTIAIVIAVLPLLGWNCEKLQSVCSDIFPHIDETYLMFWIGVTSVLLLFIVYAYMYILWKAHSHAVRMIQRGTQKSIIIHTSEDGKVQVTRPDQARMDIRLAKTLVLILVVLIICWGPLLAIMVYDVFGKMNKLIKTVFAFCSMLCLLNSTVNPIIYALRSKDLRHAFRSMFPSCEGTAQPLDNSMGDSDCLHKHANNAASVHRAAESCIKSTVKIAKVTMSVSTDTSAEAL

What is called IC50 is the concentration that gives 50% inhibition. As a reminder, the inhibition is the relative decrease from the control value, in per cent. As for `CN(CCNC(=O)c1ccc([N+](=O)[O-])cc1)Cc1ccccc1`, the IC50 in the series on SH-SY5Y is over 100 µM. The inhibition came to 5% in [1]; 15% in series [2]; 6% in [3]; 39% in [5]; 22% in [6]; 8% in [7]. Moreover, the results for the inhibition in [8] and in series [9] were -1% and -2%, respectively. In addition, in the series on S1R (sigma-1 receptor), the selectivity ratio was over 27800. For the same molecule, the Activity in series [4] is -4%; in series [10] it was -5%.
Regarding `CN(CCCNC(=O)c1cccc(Br)c1)Cc1ccccc1`, the IC50 in the series on SH-SY5Y is over 100 µM. For the same molecule, the inhibition in series [2] is 29%; in series [3] it was 14%; in series [5], 38%; in series [6], 31%; in series [7] it was 7%; in series [8], -5%. Besides, the inhibition in series [9] was -4%; in series [11], 3%. In addition, in the series on S1R (sigma-1 receptor), the selectivity ratio is over 25600. Further, the Activity in series [4] is -4%; in [10] it was -1%.
In the case of `CCCc1ccc(C(=O)NCCCN(C)Cc2ccccc2)cc1`, the inhibition in [1] was 8%; in series [2] it was -4%; in series [3], 11%; in [5], 54%; in series [6], 0%; in [7] it was -5%. The inhibition in [8] is -7%; in series [9] it was 2%; in [11] it was 4%. The results for the Activity in [4] and in series [10] were -2% and -6%, respectively.
Consider `CN(CCCNC(=O)c1ccc(Br)cc1)Cc1ccccc1`, for which the inhibition is 24% in series [1]; -9% in series [2]; 0% in series [3]; 28% in series [5]; 4% in series [6]; -5% in series [7]. Besides, the inhibition was -3% in series [8], 0% in series [9] and -2% in series [11]. Also, the Activity in series [4] was 1%; in [10], -7%.
For `COc1ccc(C(=O)NCCCN(C)Cc2ccccc2)cc1`, the inhibition in series [1] was 12%; in [2], 20%; in series [3] it was -9%; in series [5], 29%; in [7], -2%; in series [8], 1%. In addition, the results for the inhibition in series [9] and in [11] were -5% and -8%, respectively. For the same molecule, the Activity was -4% in series [4] and -13% in series [10].
As to `CN(CCCNC(=O)c1ccc(Cl)cc1)Cc1ccccc1`, the IC50 in the series with SH-SY5Y was over 100 µM. Besides, the inhibition is 16% in [1]; 8% in series [2]; 45% in [5]; 7% in series [6]; 9% in series [7]; -4% in series [8]. Also, the inhibition in series [9] was -1%; in series [11] it was 5%. The selectivity ratio in the series with S1R (sigma-1 receptor) was over 31200. The results for the Activity in [4] and in series [10] were 1% and -9%, respectively.
As to `CN(CCCNC(=O)c1ccc([N+](=O)[O-])cc1)Cc1ccccc1`, the inhibition is -7% in series [1]; -6% in series [2]; 6% in series [3]; 30% in series [5]; 0% in series [6]; 5% in [7]. The inhibition in [8] stood at 6%; in series [11], 5%. The values for the Activity in [4] and in series [10] were 2% and -4%, respectively.
For `CN(CCCNC(=O)c1ccc(C(F)(F)F)cc1)Cc1ccccc1`, the inhibition in series [1] is 18%; in series [2], -1%; in series [3], 6%; in [5] it was 33%; in [6], 31%; in series [9], -9%. In addition, the inhibition in [11] stood at 10%. Further, the results for the Activity in [4] and in [10] were 2% and 8%, respectively.
`CN(CCNC(=O)c1ccc(C#N)cc1)Cc1ccccc1`: the IC50 in the series on SH-SY5Y was over 100 µM. The inhibition is -6% in series [1]; 9% in [2]; 9% in series [3]; 40% in series [5]; 3% in series [6]; 0% in series [7]. In addition, the inhibition in series [8] and in [9] was -2% in each case. Further, in the series with S1R (sigma-1 receptor), the selectivity ratio was over 83300. In addition, the Activity in series [4] is -5%; in series [10], -7%.
For `CN(CCCNC(=O)c1ccc(Cl)cc1)CCc1ccccc1`, in the series with SH-SY5Y, the IC50 was over 100 µM. Moreover, the inhibition in series [1] was 10%; in series [2] it was 9%; in [3], 36%; in series [5], 83%; in series [6], 17%; in series [7], 6%. For the same molecule, the figures for the inhibition in series [8] and in [11] were -1% and 1%, respectively. The selectivity ratio with S1R (sigma-1 receptor) is over 23300. Besides, the results for the Activity in series [4] and in series [10] were 0% and -3%, respectively.
Take `CN(CCNC(=O)c1ccc(Cl)cc1)Cc1ccccc1`: the IC50 in the series on SH-SY5Y was over 100 µM. For the same molecule, the inhibition is -1% in [1]; 18% in series [3]; 39% in series [5]; 30% in series [6]; 18% in [7]; -1% in series [8]. The inhibition in [11] is 4%. Moreover, in the series with S1R (sigma-1 receptor), the selectivity ratio is over 27800. Also, the Activity was -1% in series [4] and -5% in series [10].
As to `COc1cccc(C(=O)NCCCN(C)Cc2ccccc2)c1`, the inhibition in series [2] was 20%; in series [3], 3%; in [5], 27%; in series [6] it was 1%; in series [8], 3%; in series [9], -3%. In series [11], the inhibition was -5%. For the same molecule, the Activity was -1% in series [4] and -12% in series [10].
